Several values for one entry are separate records, joined by “and”; a condition that tells them apart may be missing. Equal values may be shown once.
How the values were obtained:
[1] = Half-life of BPP followed spectroscopically at 265 nm; assay type: physicochemical; conditions: phosphate buffer (enzyme-free ultrafiltrate of the reaction), pH 6, 0.1 M phosphate, first-order decay, after removal of D1*D2D3 by ultrafiltration, read-out: half-life (t1/2)
Method: The synthesis and t1/2 of BPP was determined spectroscopically at 265 nm. The synthesis of BPP with D1*D2D3 sonicate and 10 mM glucosone in a 500 μL reaction was followed until the absorbance reached ˜1.4 (about 14 minutes). The reaction was then passed through a 3,000 MWCO Nanosep centrifugal filter (PALL Life Sciences) by centrifuging for 4 minutes at 14,000×g and 200 μL of filtrate followed at A265 every 4 s. The decay of A265 was normalized to the highest and lowest measured values, with the highest A265 set to 1 and the lowest to 0. To determine whether the t1/2 was 0th, 1st or 2nd order, the natural log of the data was plotted against time. After determining that the decay followed 1st-order decay, t1/2 was calculated using the Solver add-in for Microsoft Excel, minimizing the sum of squared differences between the measured and modeled data calculated using Equation 1.

[2] = Partition coefficient of HBL extraction from aqueous solution into organic solvent (GC/FID); assay type: physicochemical
From the text: One potential application of HBL, which may have high value, is as a pharmaceutical precursor, which depends on its enantiomeric purity. To identify the chirality of the HBL produced by the above process, gas chromatography (GC) with flame ionization detection (FID) was applied using a MilliporeSigma® Supelco® ß-Dex 255 capillary GC column containing a chiral stationary phase of 2,3-diO-acetyl-6-0-TBDMS-ß-cyclodextrin. (MilliporeSigma and Supelco are registered trademarks of Merck KGaA of Darmstadt, Germany) This column successfully separated the enantiomers of HBL, although the retention times depended on the solvent in which the HBL was dissolved. Based on the reaction network from glucose to HBL, the chirality should be preserved at the C-5 position (FIG. 1). The reaction product solution was extracted with ethyl acetate, and the organic phase analyzed by GC/FID. […] The partition coefficient of HBL extraction into ethyl acetate was 0.1±0.02, and quantification of the HBL in the ethyl acetate coupled with this partition coefficient leads to an overall yield of HBL from glucose of 90%, which is limited by equilibrium, vide supra. HBL can also be extracted into THE, with a partition coefficient of 1.3±0.5, and propylene carbonate, with a partition coefficient of 0.5±0.1.

| Structure (SMILES) | half-life [1] [min] | partition coefficient of HBL extraction into THF ([2]; THF (printed THE) / aqueous solution) | partition coefficient of HBL extraction into ethyl acetate ([2]; ethyl acetate / aqueous reaction product solution) | partition coefficient of HBL extraction into propylene carbonate ([2]; propylene carbonate / aqueous solution) |
| --- | --- | --- | --- | --- |
| O=C1C(O)=C[C@@H](CO)OC1O (stereo partly shown) [BPP] | 3.7 |  |  |  |
| O=C1C[C@H](O)CO1 [HBL, (S)-3-hydroxy-γ-butyrolactone] |  | 1.3 and 1.3±0.5 | 0.1 and 0.1±0.02 | 0.5±0.1 |

Reference: patent US20250122541A1, “ENZYMATIC AND CHEMICAL CATALYSIS FOR PRODUCTION FROM GLUCOSE OF THE PHARMACEUTICAL PRECURSOR, S-3-HYDROXY- Y -BUTYROLACTONE HBL” (The United States, as represented by the Secretary of …, priority 2023, published 2025)
